Laboratory results as given in patent publication US20250084074A1, “SUBSTITUTED HETEROCYCLES AS HSET INHIBITORS” (MERCK PATENT GMBH, priority 2022, published 2025).
Counter-ions that a name gives are not always drawn.

Biological target: HSET full length protein (Homo sapiens (Human), UniProt Q9BW19)
Experiment: HSET ADP-Glo Assay S - 3 μM ATP
Type: biochemical
Settings: 5 nM HSET, 70 μg/mL microtubule, 80 min at rt, read-out: COMBINED HSET ADP GLO IC50
Procedure, shortened: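 ADP-Glo luminescence read-out: ATPase reaction at 3 μM ATP, 80 min at room temperature, after a 10 min compound preincubation. Enzyme was full-length human HSET at 5 nM, stimulated by 70 μg/mL paclitaxel-stabilised bovine microtubules in HEPES pH 6.8 buffer with MgCl2, EGTA, Triton X-100 and DTT.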

Sequence of HSET full length protein (Q9BW19 whole entry): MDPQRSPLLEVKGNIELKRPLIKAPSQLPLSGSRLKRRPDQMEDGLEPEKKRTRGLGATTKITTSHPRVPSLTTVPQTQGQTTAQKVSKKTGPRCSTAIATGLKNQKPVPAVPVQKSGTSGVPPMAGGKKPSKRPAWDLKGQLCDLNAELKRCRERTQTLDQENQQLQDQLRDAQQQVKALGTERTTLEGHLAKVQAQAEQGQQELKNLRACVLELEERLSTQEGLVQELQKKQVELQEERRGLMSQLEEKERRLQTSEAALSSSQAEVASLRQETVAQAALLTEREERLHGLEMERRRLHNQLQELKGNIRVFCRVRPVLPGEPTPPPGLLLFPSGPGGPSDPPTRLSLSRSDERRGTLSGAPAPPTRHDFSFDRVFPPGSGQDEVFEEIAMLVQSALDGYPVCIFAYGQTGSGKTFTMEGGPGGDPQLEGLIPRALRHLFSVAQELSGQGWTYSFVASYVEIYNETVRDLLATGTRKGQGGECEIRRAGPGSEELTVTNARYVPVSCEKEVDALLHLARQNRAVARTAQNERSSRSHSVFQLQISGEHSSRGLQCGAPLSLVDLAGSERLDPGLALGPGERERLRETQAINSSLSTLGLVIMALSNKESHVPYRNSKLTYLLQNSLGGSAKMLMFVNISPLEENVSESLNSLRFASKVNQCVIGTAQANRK

IC50 [nM] | Compound
3890 | CCCNC(=O)c1cc(NC(=O)CCNc2nccc3ccc(-c4noc(C)n4)cc23)nn1C [Example 73, 1-Methyl-3-(3-((7-(5-methyl-1,2,4-oxadiazol-3-yl)isoquinolin-1-yl)amino)propanamido)-N-propyl-1 H-pyrazole-5-carboxamide]
272 | CCCOC(=O)c1sc(C(=O)N(C)CCNc2nccc3ccc(-c4noc(C)n4)cc23)nc1C [Example 74, Propyl 4-methyl-2-(methyl(2-((7-(5-methyl-1,2,4-oxadiazol-3-yl)isoquinolin-1-yl)amino)ethyl)carbamoyl)thiazole-5-carboxylate]
8310 | CCc1cc(NC(=O)CCNc2nccc3ccc(-c4noc(C)n4)cc23)nn1C [Example 76]
556 | Cc1nc(-c2ccc3ccnc(NCCC(=O)Nc4cc(C(C)(C)C)on4)c3c2)no1 [Example 77, N-(5-(tert-butyl)isoxazol-3-yl)-3-((7-(5-methyl-1,2,4-oxadiazol-3-yl)isoquinolin-1-yl)amino)propenamide]
1500 | Cc1nc(-c2ccc3ccnc(NCCC(=O)Nc4cc(C5CC5)on4)c3c2)no1 [Example 78]
4340 | CCc1cc(NC(=O)CCNc2nccc3ccc(-c4noc(C)n4)cc23)no1 [Example 79, N-(5-ethylisoxazol-3-yl)-3-((7-(5-methyl-1,2,4-oxadiazol-3-yl)isoquinolin-1-yl)amino)propanamide]
201 | Cc1nc(-c2ccc3ccnc(NCCC(=O)Nc4ncc(C(C)(C)C)s4)c3c2)no1 [Example 80, N-(5-(tert-butyl)thiazol-2-yl)-3-((7-(5-methyl-1,2,4-oxadiazol-3-yl)isoquinolin-1-yl)amino)propanamide]
21 | CCc1nc(NC(=O)CCNc2nccc3ccc(-c4noc(C)n4)cc23)sc1C(C)(C)C [Example 81, N-(5-(tert-butyl)-4-ethylthiazol-2-yl)-3-((7-(5-methyl-1,2,4-oxadiazol-3-yl)isoquinolin-1-yl)amino)propanamide]
1680 | COC1(c2sc(NC(=O)CCNc3nccc4ccc(-c5noc(C)n5)cc34)nc2C)COC1 [Example 83, N-[5-(3-methoxyoxetan-3-yl)-4-methyl-thiazol-2-yl]-3-[[7-(5-methyl-1,2,4-oxadiazol-3-yl)-1-isoquinolyl]amino]propanamide]
57 | CCCOC1(c2sc(NC(=O)CCNc3nccc4ccc(-c5noc(C)n5)cc34)nc2C)COC1 [Example 84]
1740 | CCCN(C)C(=O)c1sc(NC(=O)CCNc2nccc3ccc(-c4noc(C)n4)cc23)nc1C [Example 85, N,4-dimethyl-2-[3-[[7-(5-methyl-1,2,4-oxadiazol-3-yl)-1-isoquinolyl]amino]propanoylamino]-N-propyl-thiazole-5-carboxamide]
848 | Cc1nc(-c2ccc3ccnc(NCCC(=O)Nc4ncc(C5=CCCCC5)s4)c3c2)no1 [Example 86]
9380 | COC1(c2cnc(NC(=O)CCNc3nccc4ccc(-c5noc(C)n5)cc34)s2)CCCCC1 [Example 87]
477 | CCOC(=O)c1sc(NC(=O)CCNC(=O)c2cccc(-c3noc(C)n3)c2)nc1C(C)C [Example 88, Ethyl 4-isopropyl-2-[3-[[3-(5-methyl-1,2,4-oxadiazol-3-yl)benzoyl]amino]propanoylamino]thiazole-5-carboxylate]
391 | Cc1nc(NC(=O)CCNC(=O)c2cccc(-c3cnn(C)c3)c2)sc1C(=O)OC(C)(C)C [Example 89, tert-Butyl-4-methyl-2-(3-(3-(1-methyl-1 H-pyrazol-4-yl)benzamido)propanamido)thiazole-5-carboxylate]
556 | CCc1nc(NC(=O)CCNC(=O)c2cccc(-c3noc(C)n3)c2)sc1C(=O)OC [Example 90, Methyl 4-ethyl-2-[3-[[3-(5-methyl-1,2,4-oxadiazol-3-yl)benzoyl]amino]propanoylamino]thiazole-5-carboxylate]
415 | CCOC(=O)c1sc(NC(=O)CCNC(=O)c2cccc(-c3noc(C)n3)c2)nc1C(F)(F)F [Example 91, Ethyl 2-[3-[[3-(5-methyl-1,2,4-oxadiazol-3-yl)benzoyl]amino]propanoylamino]-4-(trifluoromethyl)thiazole-5-carboxylate]

IC50 [nM] | Compound
45 | CCOC(=O)c1sc(NC(=O)CCNC(=O)c2cccc(-c3noc(C)n3)c2)nc1CC [Example 92, Ethyl 4-ethyl-2-[3-[[3-(5-methyl-1,2,4-oxadiazol-3-yl)benzoyl]amino]propanoylamino]thiazole-5-carboxylate]
691 | Cc1nc(-c2cccc(C(=O)NCCC(=O)Nc3nc(C)c(/C=C/C4CCCC4)s3)c2)no1 [Example 93, N-[3-[[5-[(E)-2-cyclopentylvinyl]-4-methyl-thiazol-2-yl]amino]-3-oxo-propyl]-3-(5-methyl-1,2,4-oxadiazol-3-yl)benzamide]
13400 | COC/C=C/c1sc(NC(=O)CCNC(=O)c2cccc(-c3noc(C)n3)c2)nc1C [Example 94, N-[3-[[5-[(E)-3-methoxyprop-1-enyl]-4-methyl-thiazol-2-yl]amino]-3-oxo-propyl]-3-(5-methyl-1,2,4-oxadiazol-3-yl)benzamide]
823 | C=C(c1ccccc1)c1sc(NC(=O)CCNC(=O)c2cccc(-c3noc(C)n3)c2)nc1C [Example 95, 3-(5-Methyl-1,2,4-oxadiazol-3-yl)-N-[3-[[4-methyl-5-(1-phenylvinyl)thiazol-2-yl]amino]-3-oxo-propyl]benzamide]
2190 | Cc1nc(-c2ccc3ccnc(N[C@H]4C[C@@H](C(=O)Nc5ncc(C(F)(F)C(F)(F)F)s5)C4)c3c2)no1 [Example 96, 3-[[7-(5-methyl-1,2,4-oxadiazol-3-yl)-1-isoquinolyl]amino]-N-[5-(1,1,2,2,2-pentafluoroethyl)thiazol-2-yl]cyclobutanecarboxamide]
72 | Cc1nc(-c2ccc3ccnc(N[C@H]4C[C@@H](C(=O)Nc5nc(C)c(C(C)(C)C)s5)C4)c3c2)no1 [Example 98, (1 s,3s)-N-(5-(tert-butyl)-4-methylthiazol-2-yl)-3-((7-(5-methyl-1,2,4-oxadiazol-3-yl)isoquinolin-1-yl)amino)cyclobutane-1-carboxamide]
7 | CCCOC(=O)c1sc(NC(=O)[C@H]2C[C@@H](Nc3nccc4ccc(-c5noc(C)n5)cc34)C2)nc1C [Example 99, Propyl4-methyl-2-((1s,3s)-3-((7-(5-methyl-1,2,4-oxadiazol-3-yl)isoquinolin-1-yl)amino)cyclobutane-1-carboxamido)thiazole-5-carboxylate]
836 | Cc1nc(-c2ccc3ccnc(N[C@H]4C[C@@H](C(=O)Nc5cc(C(C)(C)C)on5)C4)c3c2)no1 [Example 100, (1 s,3s)-N-(5-(tert-butyl)isoxazol-3-yl)-3-((7-(5-methyl-1,2,4-oxadiazol-3-yl)isoquinolin-1-yl)amino)cyclobutane-1-carboxamide]
276 | CCCCCc1cc(NC(=O)[C@H]2C[C@@H](Nc3nccc4ccc(-c5noc(C)n5)cc34)C2)nn1C [Example 101, (1s,3s)-3-((7-(5-methyl-1,2,4-oxadiazol-3-yl)isoquinolin-1-yl)amino)-N-(1-methyl-5-pentyl-1 H-pyrazol-3-yl)cyclobutane-1-carboxamide]
409 | Cc1nc(-c2ccc3ccnc(N[C@H]4C[C@@H](C(=O)Nc5cc(C)c(CC(C)C)s5)C4)c3c2)no1 [Example 102, (1s,3s)-N-(5-isobutyl-4-methylthiophen-2-yl)-3-((7-(5-methyl-1,2,4-oxadiazol-3-yl)isoquinolin-1-yl)amino)cyclobutane-1-carboxamide formate]
676 | Cc1nc(-c2ccc3ccnc(N[C@H]4C[C@@H](C(=O)Nc5nc(C)c(C(F)(F)F)s5)C4)c3c2)no1 [Example 103, (1s,3s)-3-((7-(5-methyl-1,2,4-oxadiazol-3-yl)isoquinolin-1-yl)amino)-N-(4-methyl-5-(trifluoromethyl)thiazol-2-yl)cyclobutane-1-carboxamide]
93 | Cc1nc(-c2cccc(C(=O)N[C@H]3C[C@@H](C(=O)Nc4nc(C)c(C(=O)OC(C)(C)C)s4)C3)c2)no1 [Example 104, tert-Butyl 4-methyl-2-((1s,3s)-3-(3-(5-methyl-1,2,4-oxadiazol-3-yl)benzamido)cyclobutane-1-carboxamido)thiazole-5-carboxylate]
1590 | Cc1nc(NC(=O)[C@H]2C[C@@H](NC(=O)c3cccc(-c4ncon4)c3)C2)sc1C(=O)OC(C)(C)C [Example 105, tert-Butyl 2-((1s,3s)-3-(3-(1,2,4-oxadiazol-3-yl)benzamido)cyclobutane-1-carboxamido)-4-methylthiazole-5-carboxylate]
132 | Cc1nnc(-c2cccc(C(=O)N[C@H]3C[C@@H](C(=O)Nc4nc(C)c(C(=O)OC(C)(C)C)s4)C3)c2)o1 [Example 106, tert-Butyl 4-methyl-2-((1s,3s)-3-(3-(5-methyl-1,3,4-oxadiazol-2-yl)benzamido)cyclobutane-1-carboxamido)thiazole-5-carboxylate]
41 | Cc1nc(NC(=O)[C@H]2C[C@@H](NC(=O)c3cccc(-c4nnn(C)n4)c3)C2)sc1C(=O)OC(C)(C)C [Example 107, tert-Butyl-4-methyl-2-((1s,3s)-3-(3-(2-methyl-2H-tetrazol-5-yl)benzamido)cyclobutane-1-carboxamido)thiazole-5-carboxylate]
1620 | Cc1nc(NC(=O)[C@H]2C[C@@H](Nc3nccc4ccc(Cl)cc34)C2)sc1C(=O)OC(C)(C)C [Example 108, tert-Butyl 2-((1s,3s)-3-((7-chloroisoquinolin-1-yl)amino)cyclobutane-1-carboxamido)-4-methylthiazole-5-carboxylate]

Compound | IC50 [nM]
Cc1nc(-c2ccc3ccnc(NCCC(=O)Nc4cc(C(C)(C)C)n(C)n4)c3c2)no1 [Example 82, N-(5-(tert-butyl)-1-methyl-1 H-pyrazol-3-yl)-3-((7-(5-methyl-1,2,4-oxadiazol-3-yl)isoquinolin-1-yl)amino)propanamide] | 1480
